How the values were obtained:
[1] = tested on: coaggregation of Fusobacterium nucleatum ssp. polymorphum ATCC10953 with Streptococcus sobrinus B13; experiment: Percent coaggregation by turbidity change (Vmax, OD 600 nm); type: cell-based; details: final concentration 10% (wt/vol %); Vmax of coaggregation buffer control = 100%
Procedure: (§1) Streptococcus sobrinus B13 was used as cariogenic bacteria, while Fusobacterium nucleatum ssp. polymorphum ATCC10953 was used as bacteria of the genus Fusobacterium.
The cariogenic bacteria and bacteria of the genus Fusobacterium were cultured on a brain heart infusion broth (product of Becton, Dickinson and Company) and a GAM broth (product of Nissui Pharmaceutical), respectively, under the conditions of 37° C., and 10% CO2, 10% H2, and 80% N2 during from the logarithmic phase to stationary phase. The respective bacteria were collected by centrifugal separation at 5,000 rpm for 5 minutes. After centrifugal washing (for 5 minutes at 5,000 rpm) three times with a coaggregation buffer (1 mM tris(hydroxymethyl)aminomethane, 0.1 mM calcium chloride, 0.1 mM magnesium chloride, and 0.15 M sodium chloride), they were each adjusted to have a turbidity OD at 600 nm of 2.0.
After addition of 60 μL of each of mannitol, palatinit, erythritol, xylitol, sorbitol and lactitol (product of Wako Pure Chemicals) to a 96-well microtiterplate to give the final concentration of 10% (wt/vol %), 30 μL of the bacteria of the genus Fusobacterium was dispensed and stirred, followed by the addition of 30 μL of the cariogenic bacteria. Then, by using a microplate reader (product of Molecular Devices), the turbidity (OD at 600 nm) was measured at one-minute intervals for 30 minutes and a change ratio Vmax (mOD/min) of the turbidity was calculated. Using the Vmax of a similar mixture containing the coaggregation buffer instead of the test substance as control (100%), the percent coaggregation was calculated. Based on a value thus obtained, the coaggregation reaction was measured.

[2] = tested on: coaggregation of Fusobacterium nucleatum ssp. polymorphum ATCC10953 with Streptococcus sobrinus B13; experiment: Coaggregation inhibition test (precipitation of a clump); type: cell-based; design: key to Coaggregation inhibition effect: the mixture in which no precipitation of a clump was observed was evaluated that test substance had a coaggregation inhibition effect (+); the mixture in which precipitation was observed was evaluated that the test substance had no coaggregation inhibition effect (−); details: 200 μL of 2% (wt/vol %) test substance solution, room temperature for 30 minutes; for precipitation due to coaggregation: result in words
Procedure: as §1
After inoculation of Streptococcus sobrinus into a brain heart infusion broth, it was cultured at 37° C. for 24 hours under an anaerobic condition. Fusobacterium nucleatum ssp. polymorphum was, on the other hand, inoculated into a GAM bouillon medium and then cultured at 37° C. for 48 hours under an anaerobic condition. After completion of the cultivation, bacteria were collected by centrifugal separation and washed twice with a coaggregation buffer (1 mM tris(hydroxymethyl)aminomethane, 0.1 mM calcium chloride, 0.1 mM magnesium chloride, and 0.15 M sodium chloride). After washing, Fusobacterium nucleatum and Streptococcus sobrinus were adjusted with the coaggregation buffer to give a turbidity (OD: UV-1600, UV-Visible spectrophotometer (product of Shimadzu Corporation)), at wavelength of 600 nm, of 2.0, whereby bacteria suspensions were prepared. Test substances such as a compound represented by the formula (A) were adjusted in advance with the coaggregation buffer to give a concentration of 2% (wt/vol %). Galactose laurate was synthesized in a known manner (Patent Document 2: JP-A-2000-159675). As the other test substances, lactose, galactose, sucrose, glucose, and fructose (each, product of Wako Pure Chemicals), and β-lauryl glucoside, β-lauryl maltoside and sucrose monolaurate (each, product of Dojindo Laboratories) were employed. In the coaggregation test, 400 μL of the suspension of Fusobacterium nucleatum, 200 μL of the suspension of Streptococcus sobrinus, and 200 μL of the 2% (wt/vol %) solution of the test substance were mixed successively by using a No. 2 RIA tube (product of Asahi Techno Glass).

## OC[C@@H](O)[C@@H](O)[C@H](O)[C@H](O)CO [mannitol]
[1]
  percent coaggregation: 16%

## O=C(CO)[C@@H](O)[C@H](O)[C@H](O)CO [Fructose, fructose]
[2]
  Coaggregation inhibition effect: −
  precipitation due to coaggregation: obvious precipitation due to coaggregation is observed

## OC[C@@H](O)[C@H](O)[C@@H](O)CO [xylitol]
[1]
  percent coaggregation: 20%

## OC[C@@H](O)[C@@H](O[C@@H]1O[C@H](CO)[C@H](O)[C@H](O)[C@H]1O)[C@H](O)[C@@H](O)CO [lactitol]
[1]
  percent coaggregation: 0%

## CCCCCCCCCCCCOCCOCCOCCO[C@@H]1O[C@H](CO)[C@H](O)[C@H](O)[C@H]1O [β-Trioxyethylene dodecylgalactoside, β-trioxyethylene lauryl galactoside]
[2]
  Coaggregation inhibition effect: +
  precipitation due to coaggregation: no precipitation due to coaggregation is observed

## Galactose laurate [Galactose monolaurate]
[2]
  Coaggregation inhibition effect: +
  precipitation due to coaggregation: no precipitation due to coaggregation is observed

## palatinit
[1]
  percent coaggregation: 71%

## O=C[C@H](O)[C@@H](O)[C@@H](O)[C@H](O)CO [Galactose, galactose]
[2]
  Coaggregation inhibition effect: +
  precipitation due to coaggregation: no precipitation due to coaggregation is observed

## CCCCCCCCO[C@H]1O[C@H](CO)[C@H](O)[C@H](O)[C@H]1O [α-Octyl galactoside, α-octyl galactoside]
[2]
  Coaggregation inhibition effect: +
  precipitation due to coaggregation: no precipitation due to coaggregation is observed

## CCCCCCCCCCCCO[C@@H]1O[C@H](CO)[C@@H](O[C@H]2O[C@H](CO)[C@@H](O)[C@H](O)[C@H]2O)[C@H](O)[C@H]1O [β-Lauryl maltoside, β-lauryl maltoside]
[2]
  Coaggregation inhibition effect: −
  precipitation due to coaggregation: obvious precipitation due to coaggregation is observed

## CCCCCCCCCCCCO[C@@H]1O[C@H](CO)[C@@H](O)[C@H](O)[C@H]1O [β-Lauryl glucoside, β-lauryl glucoside]
[2]
  Coaggregation inhibition effect: −
  precipitation due to coaggregation: obvious precipitation due to coaggregation is observed

## OC[C@H]1O[C@@H](O[C@H]2[C@H](O)[C@@H](O)C(O)O[C@@H]2CO)[C@H](O)[C@@H](O)[C@H]1O (stereo partly shown) [Lactose, lactose]
[2]
  Coaggregation inhibition effect: +
  precipitation due to coaggregation: no precipitation due to coaggregation is observed

## CCCCCCCCO[C@@H]1O[C@H](CO)[C@H](O)[C@H](O)[C@H]1O [β-octyl galactoside]
[2]
  Coaggregation inhibition effect: +
  precipitation due to coaggregation: no precipitation due to coaggregation is observed

## OC[C@@H](O)[C@@H](O)CO [erythritol]
[1]
  percent coaggregation: 35%

## sucrose monolaurate
[2]
  Coaggregation inhibition effect: −
  precipitation due to coaggregation: obvious precipitation due to coaggregation is observed

## OC[C@H]1O[C@@](CO)(O[C@H]2O[C@H](CO)[C@@H](O)[C@H](O)[C@H]2O)[C@@H](O)[C@@H]1O [Sucrose, sucrose]
[2]
  Coaggregation inhibition effect: −
  precipitation due to coaggregation: obvious precipitation due to coaggregation is observed

## OC[C@@H](O)[C@@H](O)[C@H](O)[C@@H](O)CO [sorbitol]
[1]
  percent coaggregation: 62%
